Five compounds from US6989397B1, “Iron chelators and uses thereof” (University of Queensland, priority 1999, dated 2006) can be followed below.

Where “and” joins values, the source holds several entries; their conditions need not be identical. Identical values can stand only once. Like-named read-outs stand apart in the source and are kept apart here.

The subject of assay [1] is BE-2 neuroblastoma cells. Put plainly: internalized 59Fe uptake from 59Fe-transferrin. The assay is classed as cell-based. The following applies: 59Fe-transferrin 0.75 μM, 3 h at 37° C., chelators 50 μM, DFO 100 μM, mean±SD. How it is done: (§1) The effect of chelators on ^59Fe uptake from ^59Fe-Tf and ^59Fe release from prelabelled cells was studied using standard procedures reported previously (Richardson et al., 1994, J. Lab Clin. Med. 124 660–71). The amount of ^59Fe internalized by the cells was measured by incubation with the general protease pronase (1 mg/ml) for 30 min at 4° C. to remove membrane-bound ^59Fe and Tf (Richardson et al., 1990; Baker et al., 1998, Biochim. Biophys. Acta 1380 21–30).
(§2) Table 2. The effect of DFO, 311, PCTH, PCBH, or PCBHH on internalized ^59Fe uptake from ^59Fe-transferrin by BE-2 neuroblastoma cells, SK-N-MC neuroepithelioma cells, and SK-Mel-28 melanoma cells. Cells were incubated with the chelators and ^59Fe-transferrin (0.75 μM) for 3 h at 37° C., washed, and incubated for 30 min at 4° C. with pronase (1 mg/ml) to separate the internalized from the membrane-bound ^59Fe. All chelators were screened at a concentration of 50 μM except for DFO which was examined at 100 μM. Results are mean±SD (three determinations) from a typical experiment.

Assay [2] relates to BE-2 neuroblastoma cells. Briefly: 59Fe release from prelabelled cells (iron efflux). Type of assay: cell-based. The settings on record: labelled 3 h with 59Fe-transferrin 0.75 μM, reincubated 3 h at 37° C., chelators 50 μM, DFO 100 μM, Mean±SD. As for the experimental part: as §1
Table 1. The effect of DFO, 311, PCTH, PCBH, or PCBHH on ^59Fe release from BE-2 neuroblastoma cells, SK-N-MC neuroepithelioma cells, and SK-Mel-28 melanoma cells. Cells were labeled for 3 h at 37° C. with ^59Fe-transferrin (0.75 μM), washed, and then reincubated with the chelators for 3 h at 37° C. […] Results are Mean±SD of three determinations in a typical experiment.

The next assay concerns SK-Mel-28 melanoma cells. Briefly: internalized 59Fe uptake from 59Fe-transferrin. Type of assay: cell-based, human. The settings on record: 59Fe-transferrin 0.75 μM, 3 h at 37° C., chelators 50 μM, DFO 100 μM, mean±SD. How it is done:
as §1, §2

Assay [3] concerns SK-N-MC neuroepithelioma cells. Briefly: 3H-thymidine, 3H-leucine or 3H-uridine incorporation. The assay is classed as cell-based, human. The settings on record: 20 hr with chelators 50 μM, DFO 100 μM, then label 2 h, Mean±SD. How it is done: Labelling of cells with ^3H-thymidine (20 Ci/mmol: Dupont NEN, MA, U.S.A.), ^3H-uridine (42.7 Ci/mmol/Dupont NEN, MA, U.S.A.) and ^3H-leucine (52 Ci/mmol: Dupont NEN) was estimated after precipitation with trichloroacetic acid (TCA). After a 20 hr incubation with the chelators, ^3H-leucine, ^3H-uridine or ^3H-thymidine (1 μCi/ml) were then added for 2 hrs at 37° C. Subsequently, petri dishes containing cell cultures were placed on ice and washed four times with ice-cold Hanks' balanced salt solution (BSS) and the cells detached from the plate using 1 mM EDTA in Ca/Mg-free saline. The cells were then pelleted by centrifugation, the supernatant removed and the pellet frozen at −70° C. After thawing the cells on ice, 1 ml of ice-cold 20% TCA was added and the solution then vortexed and kept on ice for 1 hr with periodic mixing. This solution was then centrifuged at 15,000 rpm for 15 mins at 4° C. and the supernatant removed. The pellet was then washed twice with 1 ml of ice-cold 10% TCA. The pellet was dissolved in 0.5 ml of 1 M NaOH and transferred to scintillation tubes with 3 ml of scintillant. Radioactivity was measured on a β-scintillation counter (LKB Wallace, Finland).
Table 3. The effect of the chelators on ^3H-thymidine, ^3H-leucine, or ^3H-uridine incorporation into SK-N-MC neuroepithelioma cells. Cells were incubated for 20 hr at 37° C. with either DFO (100 μM) or the other chelators (50 μM). Following this, either ^3H-thymidine, ^3H-leucine, or ^3H-uridine (1 μCi/mL) were added and the cells incubated for an additional 2 h at 37° C. (see Methods for details). Results are Mean±SD (4–5 determinations) from a typical experiment of 2–4 experiments performed.

Assay [4] concerns SK-N-MC neuroepithelioma cells. Briefly: cellular proliferation, MTT assay. The settings on record: 90 h incubation, chelators 0.39–50 μM, read-out: IC50, inhibition of growth of SK-N-MC cells. Type of assay: cell-based, human. As for the experimental part: FIG. 4. The effect of chelator concentration on the proliferation of SK-N-MC neuroepithelioma cells. Cells were incubated in the presence and absence of the chelators (0–50 μM) for 90 h at 37° C. After this incubation period, cellular density was measured via the MTT assay. Each data point represents the mean of four replicates in a typical experiment of two experiments performed.
The effects of the chelators on the proliferation of SK-N-MC neuroepithelioma cells were examined using the MTT (3-(4,5-dimethylthiazol-2-yl)-2,5-diphenyltetrazolium) assay by essentially the same method as described previously (Richardson et al., 1995). Cellular proliferation was examined by seeding cells in 96-well microtitre plates at 15,000 cells/well in 0.1 mL of complete medium containing human diferric Tf (1.25 μM). […] The cells were allowed to grow overnight and the chelators were then added in 0.1 mL of complete medium containing differic transferrin (1.25 μM). The final concentrations of the chelators were 0.39–50 μM. Control samples contained complete medium and diferric Tf (1.25 μM). Cells were incubated with the chelators for 90 hrs at 37° C. in a humidified atmosphere containing 95% air and 5% CO2. After this incubation, 0.01 mL of MTT was added to each well and the plates incubated for 2 hrs at 37° C. The cells were solubilized by adding 0.1 mL of 10% SDS-50% isobutanol in 0.01 M HCl and the plates were read at 570 nm on a scanning multiwell spectrophotometer (Titertek Multiscan; Beckman Instruments Inc., California). As shown previously for the SK-N-MC cell line, MTT colour formation was directly proportional to the number of viable cells (Richardson et al., 1995).
(Tetrazolium assays rely on reduction of a dye to a coloured formazan, in cell work by metabolically active cells.)

`O=C(NN=Cc1ccccn1)c1cccs1` [PCTH, 2-pyridylcarboxaldehyde 2-thiophenecarboxyl hydrazone]: the “Internalised Iron Uptake (% Control)” value in the assay with BE-2 neuroblastoma cells [1] came to 25 ± 3 % Control. In addition, the “% Cellular Iron Released” value with BE-2 neuroblastoma cells [2] is listed as 50 ± 1%. Further, in the assay with SK-Mel-28 melanoma cells, the “Internalised Iron Uptake (% Control)” value is given as 38 ± 6 % Control. Besides, in assay [3], the “3H-Leucine incorporation, % Control” value is reported as 21 ± 6 % Control; the “3H-Thymidine incorporation, % Control” value is 64 % Control and 64 ± 14 % Control; the “3H-Uridine incorporation, % Control” value was found to be 43 ± 2 % Control.
As to `O=C(NN=Cc1ccco1)c1ccncc1` [FIH, 2furoylcarboxaldehyde isonicotinoyl hydrazone], in assay [3], the “3H-Leucine incorporation, % Control” value amounted to 78 ± 5 % Control; the “3H-Thymidine incorporation, % Control” value was 17 ± 4 % Control; the “3H-Uridine incorporation, % Control” value came out at 48 ± 10 % Control.
As to `O=C(NN=Cc1ccccn1)c1ccccc1` [PCBH, 2-pyridylcarboxaldehyde benzoyl hydrazone], in the assay on BE-2 neuroblastoma cells [1], the “Internalised Iron Uptake (% Control)” value is given as 25 ± 4 % Control. Further, the “% Cellular Iron Released” value with BE-2 neuroblastoma cells [2] was 44 ± 1%. Further, in the assay on SK-Mel-28 melanoma cells, the “Internalised Iron Uptake (% Control)” value was 36 ± 6 % Control. The IC50 (in general, the concentration at which inhibition is half-maximal) in assay [4] was determined as 50 µM. In addition, in assay [3], the “3H-Leucine incorporation, % Control” value came to 30 ± 13 % Control; the “3H-Thymidine incorporation, % Control” value is 72 % Control and 72 ± 16 % Control; the “3H-Uridine incorporation, % Control” value is given as 31 ± 9 % Control.
On to `O=C(NN=Cc1c(O)ccc2ccccc12)c1ccncc1` [Chelator 311, 2-hydroxy-1-naphthylaldehyde isonicotinoyl hydrazone, reference compound], for which the “Internalised Iron Uptake (% Control)” value in the assay with BE-2 neuroblastoma cells [1] is on record as 8 ± 1 % Control. Also, the “% Cellular Iron Released” value with BE-2 neuroblastoma cells [2] worked out at 52 ± 1%. The “Internalised Iron Uptake (% Control)” value with SK-Mel-28 melanoma cells came to 9 ± 1 % Control. In assay [4], the IC50 is 2 µM. Moreover, in assay [3], the “3H-Leucine incorporation, % Control” value was 2 % Control and 2 ± 0.3 % Control; the “3H-Thymidine incorporation, % Control” value is 0.1 % Control and 0.1 ± 0.1 % Control; the “3H-Uridine incorporation, % Control” value is 5 % Control and 5 ± 2 % Control.
Turning to `CC(=O)N(O)CCCCCNC(=O)CCC(=O)N(O)CCCCCNC(=O)CCC(=O)N(O)CCCCCN` [DFO, desferrioxamine, reference compound], the “Internalised Iron Uptake (% Control)” value in the assay with BE-2 neuroblastoma cells [1] is 42 % Control and 42 ± 3 % Control. For the same compound, the “% Cellular Iron Released” value in the assay on BE-2 neuroblastoma cells [2] is 44 ± 2%. For the same compound, the “Internalised Iron Uptake (% Control)” value with SK-Mel-28 melanoma cells was 98 % Control and 98 ± 7 % Control. Further, in assay [4] (Homo sapiens, SK-N-MC), the IC50 worked out at 47 µM. Also, in assay [3], the “3H-Leucine incorporation, % Control” value was 9 % Control and 9 ± 0.7 % Control; the “3H-Thymidine incorporation, % Control” value was determined as 29 ± 13 % Control; the “3H-Uridine incorporation, % Control” value was 34 % Control and 34 ± 5 % Control.
